# Active and inactive are the calls of the source. No cut-off for these calls is given here.
# Columns and labels:
# Cytochrome P450 = experiment: Inhibition of CYP450 (unknown origin); type: ADME, protein assay; conditions: human
# [1] = Lipophilicity, log D of the compound; type: physicochemical; conditions: octanol/water
# [2] = Mutagenicity in Salmonella typhimurium strains by Ames test; type: toxicity; conditions: salmonella enterica subsp. enterica serovar typhimurium
# [3] = Plasma protein binding in dog; type: ADME, cell-free, Canis lupus familiaris; conditions: read-out: PPB (converted)
# [4] = Drug uptake in male Sprague-Dawley rat Bronchoalveolar lavage assessed as decrease BAL level at 0.3 mg/kg, IT measured after 6 hrs by LC-MS/MS analysis relative to control; type: ADME, organism-based; conditions: in vivo, other
# [5] = Plasma protein binding in human; type: ADME, cell-free; conditions: read-out: PPB (converted)
# [6] = Inhibition of ENaC in human Primary bronchial epithelial cell; type: cell-based
# [7] = molecular target: Sodium channel protein type 5 subunit alpha (Homo sapiens, UniProt Q14524); experiment: Inhibition of Nav1.5 (unknown origin) 10 uM by automated patch clamp method
# Chain of Sodium channel protein type 5 subunit alpha (Q14524 whole entry): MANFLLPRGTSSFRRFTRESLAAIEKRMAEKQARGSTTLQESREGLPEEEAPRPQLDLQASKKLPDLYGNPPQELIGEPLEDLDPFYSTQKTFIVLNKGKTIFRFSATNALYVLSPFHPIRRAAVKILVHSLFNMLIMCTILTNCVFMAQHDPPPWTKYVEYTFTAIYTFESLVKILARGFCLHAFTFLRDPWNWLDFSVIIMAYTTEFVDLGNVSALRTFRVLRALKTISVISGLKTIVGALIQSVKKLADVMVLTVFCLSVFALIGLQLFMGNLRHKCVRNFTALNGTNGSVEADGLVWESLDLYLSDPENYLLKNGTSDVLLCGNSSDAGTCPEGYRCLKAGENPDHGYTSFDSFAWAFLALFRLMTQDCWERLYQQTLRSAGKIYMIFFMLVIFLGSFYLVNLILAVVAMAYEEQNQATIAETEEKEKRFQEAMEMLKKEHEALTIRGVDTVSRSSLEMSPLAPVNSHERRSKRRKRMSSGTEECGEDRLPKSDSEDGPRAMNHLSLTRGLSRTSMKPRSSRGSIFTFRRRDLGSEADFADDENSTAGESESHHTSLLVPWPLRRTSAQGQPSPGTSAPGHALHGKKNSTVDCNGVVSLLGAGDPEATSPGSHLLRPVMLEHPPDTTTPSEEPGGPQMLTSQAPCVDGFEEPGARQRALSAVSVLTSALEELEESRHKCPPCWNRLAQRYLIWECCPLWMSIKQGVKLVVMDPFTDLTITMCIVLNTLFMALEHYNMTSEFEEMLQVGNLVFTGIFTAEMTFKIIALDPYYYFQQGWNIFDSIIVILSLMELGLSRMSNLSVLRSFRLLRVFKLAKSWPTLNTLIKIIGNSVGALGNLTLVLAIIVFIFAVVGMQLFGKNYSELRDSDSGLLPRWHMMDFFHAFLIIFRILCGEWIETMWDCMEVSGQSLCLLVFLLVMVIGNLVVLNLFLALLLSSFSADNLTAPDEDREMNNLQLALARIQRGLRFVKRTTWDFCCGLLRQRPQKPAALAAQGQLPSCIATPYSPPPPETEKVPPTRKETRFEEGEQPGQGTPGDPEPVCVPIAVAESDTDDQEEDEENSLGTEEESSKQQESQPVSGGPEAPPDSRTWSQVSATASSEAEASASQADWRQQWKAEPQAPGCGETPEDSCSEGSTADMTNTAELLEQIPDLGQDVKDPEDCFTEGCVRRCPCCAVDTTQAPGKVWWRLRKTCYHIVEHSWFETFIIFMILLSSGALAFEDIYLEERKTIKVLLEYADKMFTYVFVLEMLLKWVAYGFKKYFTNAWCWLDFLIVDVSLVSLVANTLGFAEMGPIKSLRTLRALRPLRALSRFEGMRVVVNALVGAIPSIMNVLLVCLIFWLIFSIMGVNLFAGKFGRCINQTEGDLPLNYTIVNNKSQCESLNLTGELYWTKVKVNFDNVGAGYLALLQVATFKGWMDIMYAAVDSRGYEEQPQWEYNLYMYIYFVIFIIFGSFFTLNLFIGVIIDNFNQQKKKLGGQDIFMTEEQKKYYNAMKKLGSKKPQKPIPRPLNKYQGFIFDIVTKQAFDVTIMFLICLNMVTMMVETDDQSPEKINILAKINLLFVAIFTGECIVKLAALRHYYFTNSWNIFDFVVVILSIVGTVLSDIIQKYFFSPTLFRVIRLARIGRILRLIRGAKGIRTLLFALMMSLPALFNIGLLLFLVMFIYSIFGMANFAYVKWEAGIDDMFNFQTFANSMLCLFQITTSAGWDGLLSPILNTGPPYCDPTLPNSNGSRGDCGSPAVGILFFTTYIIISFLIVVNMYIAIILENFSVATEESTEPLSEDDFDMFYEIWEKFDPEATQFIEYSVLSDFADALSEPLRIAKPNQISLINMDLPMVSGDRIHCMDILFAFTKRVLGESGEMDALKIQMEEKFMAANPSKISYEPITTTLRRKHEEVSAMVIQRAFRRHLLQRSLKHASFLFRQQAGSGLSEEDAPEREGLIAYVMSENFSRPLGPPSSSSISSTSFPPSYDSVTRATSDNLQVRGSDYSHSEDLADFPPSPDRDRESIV
# [8] = molecular target: Voltage-dependent L-type calcium channel subunit alpha-1C (Homo sapiens, UniProt Q13936); experiment: Inhibition of Cav1.2 (unknown origin) at 10 uM by automated patch clamp method
# [9] = Plasma protein binding in rat; type: ADME, cell-free; conditions: read-out: PPB (converted)
# [10] = molecular target: Potassium voltage-gated channel subfamily A member 5 (Homo sapiens) (UniProt P22460); experiment: Inhibition of Kv1.5 (unknown origin) at 10 uM by automated patch clamp method
# Chain of Potassium voltage-gated channel subfamily A member 5 (Homo sapiens) (P22460 whole entry): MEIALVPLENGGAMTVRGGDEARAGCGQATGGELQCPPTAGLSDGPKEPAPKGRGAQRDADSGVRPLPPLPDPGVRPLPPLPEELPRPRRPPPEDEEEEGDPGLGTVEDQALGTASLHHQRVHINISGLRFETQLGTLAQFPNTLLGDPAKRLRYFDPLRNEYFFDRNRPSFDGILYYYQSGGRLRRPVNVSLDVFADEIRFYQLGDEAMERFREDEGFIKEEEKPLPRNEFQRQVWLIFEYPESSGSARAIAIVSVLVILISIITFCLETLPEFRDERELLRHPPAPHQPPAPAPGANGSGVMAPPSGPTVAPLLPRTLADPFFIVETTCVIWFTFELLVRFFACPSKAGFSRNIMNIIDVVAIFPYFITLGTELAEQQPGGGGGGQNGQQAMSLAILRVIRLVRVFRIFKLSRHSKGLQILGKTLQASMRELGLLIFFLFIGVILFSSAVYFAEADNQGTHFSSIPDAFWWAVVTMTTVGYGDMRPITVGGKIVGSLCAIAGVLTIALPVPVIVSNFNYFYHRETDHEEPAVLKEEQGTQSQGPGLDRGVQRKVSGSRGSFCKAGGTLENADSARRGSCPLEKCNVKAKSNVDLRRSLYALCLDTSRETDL
# Ovis aries [11] = experiment: (§1) Mucociliary clearance activity in sheep mucociliary clearance model assessed as effective dose administered as inhalation pre-administered for 4 to 6 hrs followed by aerosolized technetium-labeled sulfur colloid (99mTc-Sc , 20 mCi) addition by Scintigraphic imaging based analysis; type: functional; conditions: time 4-6 hrs
# [12] = molecular target: Voltage-gated inwardly rectifying potassium channel KCNH2 (Homo sapiens, UniProt Q12809); experiment: Inhibition of human ERG at 30 uM by automated patch clamp method; type: toxicity
# Chain of Voltage-gated inwardly rectifying potassium channel KCNH2 (Q12809 whole entry): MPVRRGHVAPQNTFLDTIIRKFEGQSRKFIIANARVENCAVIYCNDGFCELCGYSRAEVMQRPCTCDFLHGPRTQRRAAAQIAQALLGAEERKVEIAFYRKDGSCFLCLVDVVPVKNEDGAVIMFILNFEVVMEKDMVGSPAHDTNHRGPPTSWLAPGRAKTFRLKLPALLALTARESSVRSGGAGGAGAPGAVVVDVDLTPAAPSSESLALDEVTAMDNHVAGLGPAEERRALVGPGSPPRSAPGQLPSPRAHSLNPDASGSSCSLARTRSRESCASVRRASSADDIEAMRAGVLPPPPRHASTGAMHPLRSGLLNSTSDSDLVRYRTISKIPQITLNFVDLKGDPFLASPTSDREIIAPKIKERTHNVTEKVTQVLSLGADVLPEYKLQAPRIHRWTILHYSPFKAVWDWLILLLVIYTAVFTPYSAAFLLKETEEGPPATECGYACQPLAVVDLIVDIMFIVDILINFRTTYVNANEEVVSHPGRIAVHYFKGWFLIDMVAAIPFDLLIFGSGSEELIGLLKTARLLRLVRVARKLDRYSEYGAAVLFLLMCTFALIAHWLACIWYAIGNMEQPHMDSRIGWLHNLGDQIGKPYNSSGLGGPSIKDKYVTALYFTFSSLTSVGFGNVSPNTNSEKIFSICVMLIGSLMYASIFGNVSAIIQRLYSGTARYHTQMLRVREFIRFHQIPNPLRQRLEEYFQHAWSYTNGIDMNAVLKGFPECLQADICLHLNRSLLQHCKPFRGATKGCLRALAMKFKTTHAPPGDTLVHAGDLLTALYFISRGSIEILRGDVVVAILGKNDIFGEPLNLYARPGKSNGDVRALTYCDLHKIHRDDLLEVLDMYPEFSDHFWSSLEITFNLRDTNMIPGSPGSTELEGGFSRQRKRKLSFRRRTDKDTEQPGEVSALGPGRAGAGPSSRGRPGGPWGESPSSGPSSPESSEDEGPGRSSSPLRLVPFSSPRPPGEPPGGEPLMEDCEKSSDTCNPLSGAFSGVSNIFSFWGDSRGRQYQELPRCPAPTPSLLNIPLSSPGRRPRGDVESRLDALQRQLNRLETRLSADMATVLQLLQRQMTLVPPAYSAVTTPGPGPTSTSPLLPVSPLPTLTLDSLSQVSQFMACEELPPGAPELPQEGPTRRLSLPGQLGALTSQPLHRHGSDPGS
# [13] = Drug uptake in male Sprague-Dawley rat Bronchoalveolar lavage assessed as fold decrease BAL level at 0.3 mg/kg, IT measured upto 6 hrs by LC-MS/MS analysis; type: ADME, organism-based; conditions: in vivo, other
# Ovis aries [14] = experiment: as §1, with “assessed as improvement in lung residence time” for “effective dose”; type: functional, organism-based; conditions: time 4-6 hrs
# [15] = Drug uptake in male Sprague-Dawley rat lung at 0.3 mg/kg, IT measured upto 6 hrs by LC-MS/MS analysis; type: ADME, organism-based; conditions: in vivo, other
Structure (SMILES),logD [1],IC50 [6] [nM],ED100 (Ovis aries [11]) [mg/kg],other results
CCn1c(CNC(=O)c2nc3cc[nH]c3nc2N)[n+](CC)c2ccc(OCCCN(C[C@H](O)[C@@H](O)[C@H](O)[C@H](O)CO)C[C@H](O)[C@@H](O)[C@H](O)[C@H](O)CO)cc21.O=C(O)C(F)(F)F.O=C([O-])C(F)(F)F,1,22,0.019,
CCc1cnc(N)c(C(=O)NCc2n(CC)c3cc(OC)ccc3[n+]2C)n1,0.9,224,,
CCn1c(CNC(=O)c2nc3cc[nH]c3nc2N)[n+](CC)c2ccc(OCCNC(=N)N)cc21,,2.5,,
CCn1c(CNC(=O)c2nc3cc[nH]c3nc2N)[n+](CC)c2ccc(C(=O)NC3CCNCC3)cc21,,7.2,,
CCn1c(CNC(=O)c2nc3cc[nH]c3nc2N)[n+](CC)c2ccc(C(=O)NCCN3CCC(N(C[C@H](O)[C@@H](O)[C@H](O)[C@H](O)CO)C[C@H](O)[C@@H](O)[C@H](O)[C@H](O)CO)CC3)cc21.O=C(O)C(F)(F)F.O=C([O-])C(F)(F)F,,38,0.025,
CCn1c(CNC(=O)c2nc3cc[nH]c3nc2N)[n+](CC)c2ccc(C(=O)NC3CCN(C[C@H](O)[C@@H](O)[C@H](O)[C@H](O)CO)CC3)cc21.O=C(O)C(F)(F)F.O=C([O-])C(F)(F)F,1,7.1,0.031,
CCn1c(CNC(=O)c2nc3cc[nH]c3nc2N)[n+](CC)c2ccc(C(=O)NCCN3CCC(N)CC3)cc21,,10,,
CCn1c(CNC(=O)c2nc(Cl)cnc2N)[n+](C)c2ccc(OC)cc21,0.9,2,,

# Further lines, with some results ahead:
logD [1],IC50 [6] [nM],Structure (SMILES),ED100 (Ovis aries [11]) [mg/kg],other results
2.8,57,CCn1c(CNC(=O)c2nc3cc[nH]c3nc2N)[n+](CC)c2ccc(C(=O)N3CCC(N(C[C@H](O)[C@@H](O)[C@H](O)[C@H](O)CO)C[C@H](O)[C@@H](O)[C@H](O)[C@H](O)CO)CC3)cc21.O=C(O)C(F)(F)F.O=C([O-])C(F)(F)F,0.009,inhibition (INH) (Cytochrome P450): Not_active; Activity [2]: Non-toxic; fraction unbound [3]: 0.9; Drug uptake [4]: 13%; fraction unbound [5]: 0.9; inhibition (INH) [7]: Not_active; inhibition (INH) [8]: Not_active; fraction unbound [9]: 0.9; inhibition [10]: inactive; inhibition (INH) [12]: Not_active; fold change (FC) [13]: 3
,51,CCn1c(CNC(=O)c2nc3cc[nH]c3nc2N)[n+](CC)c2ccc(OCCN(C[C@H](O)[C@@H](O)[C@H](O)[C@H](O)CO)C[C@H](O)[C@@H](O)[C@H](O)[C@H](O)CO)cc21,,
1,18,CCn1c(CNC(=O)c2nc3cc[nH]c3nc2N)[n+](CC)c2ccc(C(=O)NCCCN(C[C@H](O)[C@@H](O)[C@H](O)[C@H](O)CO)C[C@H](O)[C@@H](O)[C@H](O)[C@H](O)CO)cc21.O=C(O)C(F)(F)F.O=C([O-])C(F)(F)F,0.026,
0,15,CCn1c(CNC(=O)c2nc3cc[nH]c3nc2N)[n+](CC)c2ccc(C(=O)NCCCN)cc21,,
< 1,4,CCn1c(CNC(=O)c2nc(C)cnc2N)[n+](C)c2ccc(OC)cc21,,
0.6,11,CCn1c(CNC(=O)c2nc3cc[nH]c3nc2N)[n+](CC)c2ccc(C(=O)N3CCC(N)CC3)cc21.Cl.[I-],0.025,Activity (Ovis aries [14]): Active
1,14,CCn1c(CNC(=O)c2nc3cc[nH]c3nc2N)[n+](CC)c2ccc(OCCN)cc21,,
1.5,7,CCn1c(CNC(=O)c2nc3cc[nH]c3nc2N)[n+](CC)c2ccc(OCCCN)cc21,,
0.8,3,CCn1c(CNC(=O)c2nc(Br)cnc2N)[n+](C)c2ccc(OC)cc21.[I-],> 0.101,Drug uptake [15]: Not_active; fold change (FC) [13]: 200
0.8,> 7700,CCn1c(CNC(=O)c2nc3ccn(C)c3nc2N)[n+](C)c2ccc(OC)cc21,,
1,7.7,CCn1c(CNC(=O)c2nc3cc[nH]c3nc2N)[n+](C)c2ccc(OC)cc21.O=C[O-],0.158,Activity (Ovis aries [14]): Active; Drug uptake [15]: Active; fold change (FC) [13]: 50
0.9,2.5,CCn1c(CNC(=O)c2nc3cc[nH]c3nc2N)[n+](CC)c2ccc(OC)cc21,,

# Reference: ChEMBL document CHEMBL6120981, “Optimisation of a novel series of ENaC inhibitors, leading to the selection of the long-acting inhaled clinical candidate ETD001, a potential new treatment for cystic fibrosis” (Eur J Med Chem, 2025)
